The METLIN SMRT retention time set (Domingo-Almenara et al. 2019)

Assay: gradient 5% acetonitrile 3 min, to 50% in 2 min, to 85% in 15 min, held 3 min, 100 µL/min
Conditions: column: Zorbax Extend-C18 2.1 x 50 mm; eluents: water / acetonitrile, 0.1% formic acid
Outline: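 Retention time was recorded from adduct peaks, which were picked computationally and each inspected manually. Pure standards ran in mixtures of ~100 molecules on HPLC coupled to a quadrupole time-of-flight mass spectrometer, in positive and negative ionization mode, through a Zorbax Extend-C18 column (2.1 × 50 mm, 1.8 μm) at 100 μL/min. Eluents were water and acetonitrile, each with 0.1% formic acid.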

SMILES	RP-LC retention time
O=C([C@H]1C[C@@H](F)CN1S(=O)(=O)Cc1ccc(Cl)cc1)N1CCOCC1	747 s
O=C(O)/C=C/C(=O)Nc1cccc2cccnc12	751 s
Cc1cc(C)c(-c2noc(C)n2)c(NC(=O)c2cccc(Br)c2)n1	820 s
CCc1c(C2CCN(C(=O)c3ccn(CC)n3)CC2)noc1N	644 s
CCCCOc1ccc(-c2cc3c(N4CCN(C)CC4)nccn3n2)cc1	754 s
Cc1ccc(Cn2cc(CCC(=O)N3CCN(c4ccccn4)CC3)c3ccccc32)cc1	777 s
c1ccc(-c2oncc2CN2CCN(c3ccccn3)CC2)cc1	603 s
Cc1ccc(Cl)cc1N1CCN(C(=O)c2cc3sccc3n2C)CC1	984 s
Cc1ccc(CNC(=O)c2cc3sc(Cl)cc3n2C)cc1	1110 s
CCOC(=O)c1nc(Nc2ccc(C(C)C)cc2)c2ccccc2n1	1020 s
O=c1ccn(-c2ccc(Cl)cc2)nc1-c1nc(-c2ccccc2OCc2ccccc2)no1	845 s
COc1ncccc1CNC(=O)c1nn(C)c2ccccc12	798 s
CN(C)S(=O)(=O)c1ccc(CNC(=O)c2cccc(-c3nnc(-c4ccccc4)o3)c2)s1	904 s
COC(=O)c1[nH]c2c(c1C)C(=O)CC(c1cc(OC)c(OC)c(OC)c1)C2 (stereo not given)	781 s
COC(=O)c1c(-c2ccc(F)cc2)noc1NCc1ccccn1	771 s
COc1ccc(OC)c(S(=O)(=O)N(C)C)c1	702 s
COc1ccccc1-c1csc(NC(=O)c2sc(COc3ccc(Cl)c(C)c3)nc2C)n1	1360 s
CC(C)NC(=O)c1ccc(C(C)C)cc1	918 s
O=C(NC1CCN(c2cc(-c3cccs3)[nH]n2)C1)c1ccc2nc[nH]c2c1 (stereo not given)	564 s
CCc1nc2cc3c(cc2n1CC(=O)N1CCOCC1)OCCO3	567 s
COc1ccc(OC)c(S(=O)(=O)N2CCCC(C(=O)NCc3ccccc3OC)C2)c1 (stereo not given)	854 s
Cc1ccc2c(Nc3ccc(S(N)(=O)=O)cc3)c(C(=O)N3CCSCC3)cnc2n1	1370 s
O=C(NCC1CCCO1)c1ccc(NC(=O)C2CCC2)cc1N1CCCCC1 (stereo not given)	617 s

SMILES	RP-LC retention time
Fc1cccc(F)c1C1SCc2nc3ccccc3n21 (stereo not given)	797 s
Cc1cc(Cl)ccc1S(=O)(=O)N1CCc2c(c(-c3nc(C4CC4)no3)nn2C)C1	1070 s
CCCc1nc(-c2c(C)cc(C)nc2NC(=O)c2cccc(Cl)c2)no1	986 s
Cc1oc(C2CCN(C(=O)Nc3ccc4c(c3)CCC4)CC2)nc1C(=O)N1CCCC1	861 s
CCCn1c(=O)sc2cc(S(=O)(=O)N3CCC(C(=O)Nc4cccc(C)n4)CC3)ccc21	844 s
CS(=O)(=O)N(Cc1ccncc1)C1CN(C(=O)c2ccoc2)C1	552 s
COC(=O)c1ccc(NC(=O)N2CC(C)Oc3ccc(C)cc32)cc1 (stereo not given)	1220 s
CCCOC(=O)c1ccc(Oc2c(C)oc3cc(OCC#N)ccc3c2=O)cc1	958 s
COc1ccc(N2CC(c3nc(-c4ccc(Cl)cc4)no3)CC2=O)cc1OC (stereo not given)	947 s
Cc1cc(CC(=O)N2CC(F)(F)C[C@H]2c2nc(C)no2)on1	732 s
CCn1cc(C(=O)N[C@@H](C)C(=O)O)c(=O)c2cc3c(cc21)OCO3	631 s
O=S(=O)(Nc1cccn2c(C3CCC3)nnc12)c1cccc2cccnc12	749 s
COC(=O)c1c(C)[nH]c(C(=O)N2CCC(CC(=O)NCc3cccc(Br)c3)CC2)c1C	800 s
CSc1cccc(NC(=O)c2cnc(-c3ccc(C)cc3)nc2-c2ccncc2)c1	1010 s
CCc1ccc(NC(=O)C2CCN(S(=O)(=O)c3ccc4c(c3)sc(=O)n4CC)CC2)cc1	953 s
O=C1CN(C(=O)COc2ccccc2)C(c2ccccc2)c2cc(F)ccc2N1 (stereo not given)	826 s
COc1cccc(CNC(=O)Cn2c(N(C)Cc3ccccc3)nc(C)cc2=O)c1OC	660 s
CC(=O)Nc1cc(-c2nc(-c3ccc4oc(C)nc4c3)no2)ccc1C	803 s
CCCN(CC1CCOC1)C(=O)Nc1ccccc1C(F)(F)F (stereo not given)	871 s
CC(C(=O)N1CCOCC1)C1CCN(C(=O)c2ccc3nc(-c4ccccc4)oc3c2)CC1 (stereo not given)	718 s
COCCn1cc(CCNC(=O)Nc2ccccc2Br)c2cccnc21	763 s
Cn1c(=O)c2nc(SCCC(=O)Nc3ccc(Cl)cc3)n(C)c2n(C)c1=O	732 s
Cc1ccc(CNC(=O)CN2CCN(C(=O)Nc3ccc(Br)cc3)CC2=O)o1	748 s

SMILES	RP-LC retention time
O=C(CN1C(=O)NC2(CCCCC2)C1=O)Nc1ccc(Br)cc1F	826 s
Cc1ccn2cc(C(=O)N3CCN(c4ccccc4Cl)CC3)nc2c1	722 s
CCC(=O)N1CCc2cc(N3CC(C(=O)NCC(C)C)CC3=O)ccc21 (stereo not given)	687 s
COc1ccc(-c2nnc(COc3cccc(NC(=O)c4cncc(Br)c4)c3)o2)cc1	914 s
O=C(NCCc1ccco1)C1CCN(c2nc3cccnc3s2)CC1	697 s
CN(CCc1noc(COc2ccc(Cl)cc2)n1)C(=O)Nc1cccc(F)c1	984 s
Cc1ccc(N2CCC(NC(=O)c3cccc(C#N)c3)C2=O)cc1 (stereo not given)	813 s
Cc1noc(-c2ccc(-n3ncc(C(=O)NCCC(C)C)c3C)nc2)n1	943 s
CC(=O)N=c1sc(S(N)(=O)=O)nn1C	644 s
CCc1cc(=O)n(CC(=O)Nc2cc(C)on2)c(-c2ccccc2)n1	938 s
Cn1c(C2CCCN(S(C)(=O)=O)C2)nn(CC(=O)NC2CCCCC2)c1=O (stereo not given)	606 s
COCCNC(=O)CCc1cn(Cc2ccccc2C)c2ccccc12	919 s
Cc1nn(-c2ccccc2)c(C)c1S(=O)(=O)N1CCC(C(=O)NCc2ccc3c(c2)OCO3)CC1	884 s
CCOC(=O)c1noc2nc(C)nc(Nc3ccc(OCC)cc3)c12	1130 s
O=C(CCS(=O)(=O)c1ccccc1)NCCOc1ccc(-c2ccc(F)cc2)nn1	715 s
O=C(NC1CCCCCC1)c1ccc(-c2cncnc2)nc1	764 s
CC(Cc1ccco1)NC(=O)C1CCN(Cc2cc3ccccc3n2Cc2cccc(Cl)c2)CC1 (stereo not given)	821 s
O=C(Cn1cccc1-c1nc(-c2ccccc2)no1)Nc1ccc2c(c1)OCCO2	1090 s
Cc1ccc2oc(N3CCN(C(=O)c4ccc(-c5noc(C6CC6)n5)cc4)CC3)nc2n1	670 s
Cc1ccc(NC(=O)N2CC(c3nc(CCOCC4CC4)no3)C2)cc1C	863 s
COc1ccc(-c2nnc(-c3cc(S(=O)(=O)N4CCC(C(=O)O)CC4)ccc3Cl)o2)cc1	875 s
O=C(CCn1cnc2cc(-c3noc(Cc4cccc(F)c4)n3)ccc21)N1CCCC1	726 s
CCn1nc(N2CCCC(NS(=O)(=O)c3cccc4cccnc34)C2)ccc1=O (stereo not given)	736 s

SMILES	RP-LC retention time
Cc1c(-c2noc(-c3ccc(F)cc3)n2)nnn1Cc1ccccc1	1060 s
CCOC(=O)Cn1c(C2CC(=O)N(c3ccc(F)cc3)C2)nc2ccccc21 (stereo not given)	766 s
O=C(Cn1c(=O)c2cccn2c2ccc(F)cc21)NCCCN1CCc2ccccc2C1	664 s
CCn1cc(-c2ccncc2)cc1C(=O)NCc1ccc(N(C)C)cc1	559 s
CCCCC(=O)N1CC(c2nc(-c3ccc(F)cc3)no2)C2(CCOCC2)C1 (stereo not given)	904 s
COCCC1CCN(C(=O)c2ccc3nc[nH]c3c2)CC1	572 s
CCCn1c(CN2CCOCC2)nc2cc(NC(=O)CC(C)C)ccc21	633 s
CCCS(=O)(=O)N1CCC(c2nnc(C3CC3)s2)CC1	684 s
CC1=C(c2ccc(Cl)cc2)S(=O)(=O)N=C1N1CCCN(C(=O)c2cccnc2)CC1	701 s
CCOC(=O)CN1CCC(c2nnc(-c3ccc(F)cc3)o2)CC1	555 s
Cc1nc2ccccc2c(=O)n1-c1ccc(NC(=O)C2CCN(S(=O)(=O)N3CCCC3)CC2)cc1	778 s
Cc1ccc(Cl)cc1NC(=O)C1CCN(S(=O)(=O)c2ccc3c(c2)NC(=O)CO3)CC1	786 s
O=C(CSc1ccc(F)cc1)Nc1cccc2ccc(-n3ccnc3)nc12	659 s
COCC1CN(C(=O)c2ccc(Br)o2)CCC1(F)F (stereo not given)	847 s
COC(=O)C1C(=O)C2=C(CC1C)NC(=O)CC2c1cccc(OC)c1 (stereo not given)	726 s
COc1ccc(Nc2nc(N3CCN(C)CC3)nc3c2C(=O)CC(C)(C)C3)cc1	706 s
CCOc1ccccc1NC(=O)Cn1nc2c3sc(N(C)C)nc3ncn2c1=O	724 s
Cc1ccc(S(=O)(=O)N2CCC3(CCC(CN4CCN(C)CC4)O3)CC2)cc1Cl (stereo not given)	655 s
O=C(CCC1CCN(c2cc(NC3CC3)ncn2)CC1)NCc1cc(F)cc(F)c1	673 s
O=C(Cn1nc(C(=O)N2CCOCC2)c2ccccc21)Nc1ccc(F)cc1	733 s
CNC(=O)[C@@H]1C[C@H](Oc2cccnc2)CN1C(=O)C1CC=CC1	554 s
